Measurements from patent publication US7018836B1, “P-TEFb compositions, methods and screening assays” (priority 1996, dated 2006).

What was measured:
Type in all cases: biochemical
[1] = test system: runoff transcription from HIV-1 LTR in HNE (human P-TEFb); assay: Transcription of HIV LTR template in HeLa nuclear extract (HNE), 633-nt runoff (FIG. 7A); settings: for IC50: HNE, HIV LTR template, read-out: 50% inhibition point, transcription assay
Method: The transcription template (Nco I-digested pLTR-4/CAT vector containing the HIV-1 LTR from −153 to +80) was used in a pulse-chase transcription experiment. Reactions (12 μl total; 20 mM HEPES, pH 7.6, 7 mM MgCl2, 20 μg/ml DNA template, 3 μl HNE, 64 mM KCl, with 50 μM DRB or 0.3 μl Drosophila P-TEFb (Marshall et al., 1996) as indicated) were pre-incubated for 20 minutes at 30° C., pulsed for 2 minutes by adding ATP, GTP, UTP to 600 μM each and 5 μCi [α-^32P]CTP (˜0.1 mM), and chased for 5 minutes by adding CTP to 1.2 mM. Reactions were stopped, phenol extracted and analyzed on a 6% polyacrylamide gel as described (Marshall and Price, 1995). pLTR-TAR-Luc and pLTR-DTAR-Luc plasmids were digested with Eco RI to generate TAR and DTAR template that were used in the studies. The TAR template contains HIV-1 LTR from −475 to +76, while the DTAR template contains HIV-1 LTR from −475 to +19. Transcription with TAR and DTAR templates generates runoffs of 694 and 646 nucleotides, respectively. The transcription reaction mix contained 20 mM HEPES (pH7.6), 7 mM MgCl2, 60 mM KCl, 0.5 μl HNE (or depHNE as indicated), 20 μg/ml TAR template (or DTAR template as indicated), indicated amount of HIV-1 Tat (86 residue HIV-1 Tat followed by a streptavidin binding tag at its carboxyl terminus) and DRB. The reaction mix was pre-incubated for 15 minutes at 30° C. and the transcription was started by adding nucleotides to final concentrations of 50 μM ATP, 50 μM GTP, 50 μM UTP, 10 μM CTP, and 5 μCi [α-^32P]CTP (˜0.1 mM), and continuously labeled for 20 minutes, or by adding nucleotides to final concentrations of 50 μM ATP, 50 μM GTP, 50 μM UTP, and 5 μCi [α-^32P]CTP (˜0.1 mM), and pulsed for 2 minutes. The reactions were stopped and reaction mix were phenol-extracted. The transcripts were then analyzed on a 6% polyacrylamide gel as described (Marshall and Price, 1995).

TAK = target: T1, TAK (Homo sapiens, UniProt P50750); assay: TAK activity assay (GST-Tat pull-down, CTD3 peptide); settings: in a manner similar to P-TEFb
T1 construct: Nuclear extract, cytoplasmic extract, or fractions containing partially purified TAK were incubated with glutathione-Sepharose beads containing GST-Tat fusion proteins; endogenous in cells; host or cells: HeLa cell extract or partially purified HeLa cytoplasmic fraction; GST-Tat made in E. coli DE3 (BL21)
Method: Preparation of Tat fusion proteins and the TAK pull-down assay were conducted as described by Herrmann and Rice (Herrmann and Rice, 1993; 1995) with modifications as described. Nuclear extract, cytoplasmic extract, or fractions containing partially purified TAK were incubated with glutathione-Sepharose beads containing GST-Tat fusion proteins for 1 hour at 4° C. with gentle rocking. DE3 (BL21) bacteria containing the GST-Tat expression vectors were obtained from NIH AIDS Research and Reference Reagent Program. For maximum sensitivity, GST-Tat48Δ was used unless otherwise specified. The beads (30 μl, 50% slurry) were washed 6 to 8 times with 1 ml EBCD buffer (50 mM Tris, pH 8.0, 120 mM NaCl, 0.5% Nonidet P-40, and 5 mM DTT) containing 0.03% SDS, then 2 to 4 times with Tat kinase buffer (TKB/Mg: 50 mM Tris-HCl, pH 7.6, 5 mM DTT, 5 mM MnCl2, and 4 mM MgCl2), and brought to 50 μl with TKB/Mg buffer and kinase assay mix. The final reaction contained 2 μM ATP, 10 μCi y-^32P-ATP (ICN, 3000 Ci/mmole), and 50–100 μM of CTD trimer peptide CTD3 ([…], SEQ ID NO:68). Reactions were incubated at 25° C. for 40 minutes, stopped by boiling in Laemmli sample buffer, and resolved by electrophoresis in 15% polyacrylamide: bis-acrylamide (30%:0.15%) gels.

human P-TEFb = target: T2, human P-TEFb (Homo sapiens, UniProt P50750); assay: CTD kinase assay with immunoprecipitated human P-TEFb and Drosophila RNA polymerase II as substrate (FIG. 7B); settings: for IC50: immunoprecipitated human P-TEFb, 10 μM ATP, read-out: 50% inhibition point, CTD kinase assay
T2 construct: endogenous in cells; host or cells: HeLa nuclear extract (HNE), immunoprecipitate on anti-PITALRE-CT beads
Method: For every 50 μl of HNE, 10 μl of protein A beads containing 1 μg of bound IgG was used. After depletion of HNE, the antibody-containing beads were extensively washed with 100 times the bead volume of 20 mM HEPES (pH 7.6), 0.5% NP-40, 1% Triton X-100, and 5 mM DTT, 600 mM or indicated concentration of NaCl, and then washed with 25 times the bead volume of 20 mM HEPES (pH 7.6) and 1 mM DTT. The amounts of the washed beads used for the kinase assays and silver staining were the equivalent of 1 μl and 10 μl of HNE, respectively.
CTD kinase assays were performed in a […] reaction containing 20 mM HEPES (pH7.6), 10 μM ATP, 5 μCi [γ-^32P]ATP, 10 ng Drosophila RNA polymerase II, 5 mM MgCl2, and purified Drosophila P-TEFb or immunoprecipitated human P-TEFb. In the reactions containing DRB it was added to 50 μM unless other indicated amounts were used. The reactions were incubated at 30° C. for 1 hour.

T2 sequence (P50750 whole entry): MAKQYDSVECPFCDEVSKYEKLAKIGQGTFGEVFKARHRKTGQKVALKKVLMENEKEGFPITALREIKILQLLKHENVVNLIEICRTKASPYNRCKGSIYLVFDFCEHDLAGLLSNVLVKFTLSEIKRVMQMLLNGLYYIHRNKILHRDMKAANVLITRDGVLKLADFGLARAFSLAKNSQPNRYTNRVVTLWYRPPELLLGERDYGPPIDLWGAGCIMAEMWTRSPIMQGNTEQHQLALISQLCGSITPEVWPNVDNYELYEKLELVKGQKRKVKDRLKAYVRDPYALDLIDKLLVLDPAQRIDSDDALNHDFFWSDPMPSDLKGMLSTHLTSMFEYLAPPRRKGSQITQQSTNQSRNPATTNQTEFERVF
T2 sequence (O60563 whole entry partner): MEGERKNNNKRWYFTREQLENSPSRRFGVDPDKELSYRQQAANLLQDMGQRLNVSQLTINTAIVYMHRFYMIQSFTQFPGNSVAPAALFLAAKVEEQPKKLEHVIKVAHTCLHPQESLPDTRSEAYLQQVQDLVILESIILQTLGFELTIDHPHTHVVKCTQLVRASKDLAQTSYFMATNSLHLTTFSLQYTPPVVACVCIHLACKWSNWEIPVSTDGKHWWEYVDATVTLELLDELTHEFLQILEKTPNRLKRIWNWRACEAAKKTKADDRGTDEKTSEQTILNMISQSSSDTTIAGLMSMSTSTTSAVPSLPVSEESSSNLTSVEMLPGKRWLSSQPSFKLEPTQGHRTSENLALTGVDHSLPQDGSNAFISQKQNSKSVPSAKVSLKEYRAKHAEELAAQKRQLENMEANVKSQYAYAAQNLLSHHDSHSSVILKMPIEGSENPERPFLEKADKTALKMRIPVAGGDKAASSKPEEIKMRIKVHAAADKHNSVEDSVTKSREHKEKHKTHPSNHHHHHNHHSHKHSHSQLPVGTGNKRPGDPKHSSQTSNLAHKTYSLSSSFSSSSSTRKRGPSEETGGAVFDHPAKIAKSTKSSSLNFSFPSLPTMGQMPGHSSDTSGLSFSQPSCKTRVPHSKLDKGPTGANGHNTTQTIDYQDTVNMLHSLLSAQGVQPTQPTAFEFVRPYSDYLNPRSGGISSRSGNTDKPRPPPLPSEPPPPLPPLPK
T1 sequence (P50750 whole entry, the tested form may be a part): as the sequence (P50750 whole entry) above
T1 sequence (O60563 whole entry, further chain, the tested form may be a part): as the sequence (O60563 whole entry partner) above
T1 sequence (P04608 1-48, further chain): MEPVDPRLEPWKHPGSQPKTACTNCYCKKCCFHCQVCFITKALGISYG

Structure (SMILES)	IC50 [1] [µM]	TAK activity (TAK)	sensitivity of phosphorylation by beads containing PITALRE (human P-TEFb; 50 μM DRB)	IC50 (human P-TEFb) [µM]	ratio of 50% inhibition points (H-8/DRB), transcription assay [1]	ratio of 50% inhibition points (H-8/DRB), CTD kinase assay (human P-TEFb)
OC[C@H]1O[C@@H](n2cnc3cc(Cl)c(Cl)cc32)[C@H](O)[C@@H]1O [DRB, 5,6-dichloro-1-β-D-ribofuranosylbenzimidazole]	1	inhibited	sensitive	0.65		
CNCCNS(=O)(=O)c1cccc2cnccc12 [H-8]	23	inhibited		16	23	25
